Target: T1, human M1 receptor (hCHRM1) (Homo sapiens, UniProt P11229)
T1 construct: expressed in transfected cells; host or cells: CHO-K1
T1 sequence (P11229 1-460): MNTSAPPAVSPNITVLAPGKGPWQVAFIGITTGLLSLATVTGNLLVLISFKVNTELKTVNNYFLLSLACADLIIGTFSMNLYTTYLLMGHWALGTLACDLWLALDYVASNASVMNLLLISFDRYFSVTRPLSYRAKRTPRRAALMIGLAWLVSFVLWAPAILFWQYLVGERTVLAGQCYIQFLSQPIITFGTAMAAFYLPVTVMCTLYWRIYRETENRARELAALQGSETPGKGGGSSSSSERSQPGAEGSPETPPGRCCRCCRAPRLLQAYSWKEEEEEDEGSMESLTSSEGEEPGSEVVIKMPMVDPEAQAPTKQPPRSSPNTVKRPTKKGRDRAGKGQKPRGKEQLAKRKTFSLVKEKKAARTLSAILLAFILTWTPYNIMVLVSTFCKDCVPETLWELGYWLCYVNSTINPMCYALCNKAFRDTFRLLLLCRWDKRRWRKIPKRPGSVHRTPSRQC
Assay: Measurement of M1 receptor positive allosteric modulator (M1PAM) activity, calcium fluorescence with acetylcholine at EC20
Assay type: cell-based
Conditions: for activity (%) at 10 μM: 10 μM test compound, 100% = 1 μM acetylcholine, 0% = DMSO; for EC50: CHO-K1 cells expressing hCHRM1, acetylcholine at EC20 (final 0.8-1.0 nM), read-out: IP value (inflection point in the concentration-dependent curve)
Method: Measurement of M1 Receptor Positive Allosteric Modulator (M1PAM) Activity
The activity of a test compound in the presence of acetylcholine at EC20 concentration (final concentration 0.8-1.0 nM), which affords an action corresponding to about 20% of the maximum activity, was measured as PAM activity. The method is as follows. CHO-K1 cells stably expressing a human M1 receptor (hCHRM1) were plated on a 384-well black clear bottom plate (BD Falcon) at 5,000 cells/well, and cultured in an incubator at 37° C., 5% CO2 for 1 day. The medium in the cell plate was removed, and assay buffer A containing calcium indicator (Recording medium (DOJINDO LABORATORIES), 0.1% BSA (Wako Pure Chemical Industries, Ltd.), 2.5 μg/mL Fluo-4 AM (DOJINDO LABORATORIES), 0.08% Pluronic F127 (DOJINDO LABORATORIES), 1.25 mM probenecid (DOJINDO LABORATORIES)) was added at 30 μL/well. The cells were left standing in the incubator at 37° C., 5% CO2 for 30 min, and further left standing at room temperature for 30 min. A test compound prepared by diluting with assay buffer B (HBSS (Invitrogen), 20 mM HEPES (Invitrogen), 0.1% BSA) containing 3.2-4.0 nM acetylcholine was added at 10 μL/well, and the fluorescence was measured by FDSS/μCELL (Hamamatsu Photonics K.K.) for 1 min every for 1 second. With the definition that the amount of change in the fluorescence on addition of acetylcholine (final concentration 1 μM) is 100% and that on addition of DMSO instead of a test compound is 0%, the activity (%) of the test compound was calculated, and the inflection point in the concentration-dependent curve of the test compound was calculated as IP values.

Compound: Cn1cc(-c2ccc(C(F)c3cc(C(=O)N[C@H]4CCCC[C@@H]4O)nc4ccoc34)cn2)cn1 (stereo partly drawn) [Example 70, 7-(fluoro(6-(1-methyl-1H-pyrazol-4-yl)pyridin-3-yl)methyl)-N-((1S,2S)-2-hydroxycyclohexyl)furo[3,2-b]pyridine-5-carboxamide]
- activity (%) at 10 μM: 99%
- EC50: 1.2 nM

Compound: Cc1cc2nc(C(=O)N[C@H]3CCOC[C@@H]3O)cc(Cc3ccc(-c4cn(C)nn4)cc3)c2o1 [Example 64, 1,5-anhydro-2,3-dideoxy-3-(((2-methyl-7-(4-(1-methyl-1H-1,2,3-triazol-4-yl)benzyl)furo[3,2-b]pyridin-5-yl)carbonyl)amino)-L-threo-pentitol]
- activity (%) at 10 μM: 109%
- EC50: 2.4 nM

Compound: Cn1cc(-c2ccc(C(F)c3cc(C(=O)N[C@H]4CCOC[C@@H]4O)nc4ccoc34)cc2)nn1 (single isomer, unassigned) [Example 56, 1,5-anhydro-2,3-dideoxy-3-(((7-(fluoro(4-(1-methyl-1H-1,2,3-triazol-4-yl)phenyl)methyl)furo[3,2-b]pyridin-5-yl)carbonyl)amino)-L-threo-pentitol]
- activity (%) at 10 μM: 106%
- EC50: 42 nM

Compound: CN1Cc2cc(Cc3cc(C(=O)N[C@H]4CCOC[C@@H]4O)nc4c3OCC4)ccc2C1=O [Example 113, 1,5-anhydro-2,3-dideoxy-3-(((7-((2-methyl-1-oxo-2,3-dihydro-1H-isoindol-5-yl)methyl)-2,3-dihydrofuro[3,2-b]pyridin-5-yl)carbonyl)amino)-L-threo-pentitol]
- activity (%) at 10 μM: 109%
- EC50: 21 nM

Compound: Cc1ncc(-c2ccc(Cc3cc(C(=O)N[C@H]4CCCC[C@@H]4O)nc4c3OCC4)cc2)s1 [Example 18, N-((1S,2S)-2-hydroxycyclohexyl)-7-(4-(2-methyl-1,3-thiazol-5-yl)benzyl)-2,3-dihydrofuro[3,2-b]pyridine-5-carboxamide]
- activity (%) at 10 μM: 97%
- EC50: 12 nM

Compound: Cc1nccc(-c2ccc(Cc3cc(C(=O)N[C@H]4CCOC[C@@H]4O)nc4ccoc34)cc2)n1 [Example 49, 1,5-anhydro-2,3-dideoxy-3-(((7-(4-(2-methylpyrimidin-4-yl)benzyl)furo[3,2-b]pyridin-5-yl)carbonyl)amino)-L-threo-pentitol]
- activity (%) at 10 μM: 104%
- EC50: 2.9 nM

Compound: Cn1cc(-c2ccc(Cc3cc(C(=O)N[C@H]4CCCC[C@@H]4O)nc4c3OCC4)cn2)cn1 [Example 61, N-((1S,2S)-2-hydroxycyclohexyl)-7-((6-(1-methyl-1H-pyrazol-4-yl)pyridin-3-yl)methyl)-2,3-dihydrofuro[3,2-b]pyridine-5-carboxamide]
- activity (%) at 10 μM: 104%
- EC50: 1.8 nM

Compound: O=C(N[C@H]1CCOC[C@@H]1O)c1cc(Cc2ccc(-n3cccn3)cc2)c2occc2n1 [Example 48, 1,5-anhydro-2,3-dideoxy-3-(((7-(4-(1H-pyrazol-1-yl)benzyl)furo[3,2-b]pyridin-5-yl)carbonyl)amino)-L-threo-pentitol]
- activity (%) at 10 μM: 103%
- EC50: 1.1 nM

Compound: CC(C)(C)OCCNC(=O)c1ccc(Cc2cc(C(=O)N[C@H]3CCOC[C@@H]3O)nc3c2OCC3)cc1F [Example 89, 1,5-anhydro-3-(((7-(4-((2-tert-butoxyethyl)carbamoyl)-3-fluorobenzyl)-2,3-dihydrofuro[3,2-b]pyridin-5-yl)carbonyl)amino)-2,3-dideoxy-L-threo-pentitol]
- activity (%) at 10 μM: 110%
- EC50: 25 nM

Compound: O=C(O)CNC(=O)c1ccc(Cc2cc(C(=O)N[C@H]3CCOC[C@@H]3O)nc3c2OCC3)cc1F [Example 96, ((2-fluoro-4-((5-(((3R,4S)-3-hydroxytetrahydro-2H-pyran-4-yl)carbamoyl)-2,3-dihydrofuro[3,2-b]pyridin-7-yl)methyl)benzoyl)amino)acetic acid]
- activity (%) at 10 μM: 107%
- EC50: 11 nM

Compound: Cn1cc(-c2ccc(Cc3cc(C(=O)N[C@H]4CCOC[C@@H]4O)nc4ccoc34)cc2)cn1 [Example 40, 1,5-anhydro-2,3-dideoxy-3-(((7-(4-(1-methyl-1H-pyrazol-4-yl)benzyl)furo[3,2-b]pyridin-5-yl)carbonyl)amino)-L-threo-pentitol]
- activity (%) at 10 μM: 98%
- EC50: 1.6 nM

Compound: O=C(N[C@H]1COCC[C@@H]1O)c1cc(Cc2ccc(-n3cccn3)cc2)c2c(n1)CCO2 [Example 3, 1,5-anhydro-2,4-dideoxy-2-(((7-(4-(1H-pyrazol-1-yl)benzyl)-2,3-dihydrofuro[3,2-b]pyridin-5-yl)carbonyl)amino)-L-threo-pentitol]
- activity (%) at 10 μM: 100%
- EC50: 13 nM

Compound: O=C(N[C@H]1CCOC[C@@H]1O)c1cc(Cc2ccc(C(=O)NC3CC3)c(F)c2)c2c(n1)CCO2 [Example 82, 1,5-anhydro-3-(((7-(4-(cyclopropylcarbamoyl)-3-fluorobenzyl)-2,3-dihydrofuro[3,2-b]pyridin-5-yl)carbonyl)amino)-2,3-dideoxy-L-threo-pentitol]
- activity (%) at 10 μM: 110%
- EC50: 6.4 nM

Compound: O=C(N[C@H]1CCOC[C@@H]1O)c1cc(Cc2ccc(C(=O)NC[C@H]3CCCO3)c(F)c2)c2c(n1)CCO2 [Example 88, 1,5-anhydro-2,3-dideoxy-3-(((7-(3-fluoro-4-(((2R)-tetrahydrofuran-2-ylmethyl)carbamoyl)benzyl)-2,3-dihydrofuro[3,2-b]pyridin-5-yl)carbonyl)amino)-L-threo-pentitol]
- activity (%) at 10 μM: 111%
- EC50: 7.6 nM

Compound: Cn1ccc(-c2ccc(Cc3cc(C(=O)N[C@H]4CCOC[C@@H]4O)nc4c3OCC4)cc2)n1 [Example 28, 1,5-anhydro-2,3-dideoxy-3-(((7-(4-(1-methyl-1H-pyrazol-3-yl)benzyl)-2,3-dihydrofuro[3,2-b]pyridin-5-yl)carbonyl)amino)-L-threo-pentitol]
- activity (%) at 10 μM: 101%
- EC50: 2.3 nM

Compound: COCCNC(=O)c1ccc(C(C)c2cc(C(=O)N[C@H]3CCOC[C@@H]3O)nc3ccoc23)cc1F (stereo partly drawn) [Example 111, 1,5-anhydro-2,3-dideoxy-3-(((7-(1-(3-fluoro-4-((2-methoxyethyl)carbamoyl)phenyl)ethyl)furo[3,2-b]pyridin-5-yl)carbonyl)amino)-L-threo-pentitol]
- activity (%) at 10 μM: 107%
- EC50: 8.8 nM

Compound: O=C(N[C@@H]1CCC(F)(F)C[C@H]1O)c1cc(Cc2ccc(-n3cccn3)cc2)c2c(n1)CCO2 (single isomer, unassigned) [Example 46, N-(trans-4,4-difluoro-2-hydroxycyclohexyl)-7-(4-(1H-pyrazol-1-yl)benzyl)-2,3-dihydrofuro[3,2-b]pyridine-5-carboxamide]
- activity (%) at 10 μM: 107%
- EC50: 4.3 nM

Compound: Cc1cc(-c2ccc(Cc3cc(C(=O)N[C@H]4CCOC[C@@H]4O)nc4ccoc34)cc2)cnn1 [Example 43, 1,5-anhydro-2,3-dideoxy-3-(((7-(4-(6-methylpyridazin-4-yl)benzyl)furo[3,2-b]pyridin-5-yl)carbonyl)amino)-L-threo-pentitol]
- activity (%) at 10 μM: 110%
- EC50: 2.4 nM

Compound: O=C(N[C@H]1CCOC[C@@H]1O)c1cc(Cc2ccc(C(=O)NCc3ccc(O)cc3)c(F)c2)c2c(n1)CCO2 [Example 90, 1,5-anhydro-2,3-dideoxy-3-(((7-(3-fluoro-4-((4-hydroxybenzyl)carbamoyl)benzyl)-2,3-dihydrofuro[3,2-b]pyridin-5-yl)carbonyl)amino)-L-threo-pentitol]
- activity (%) at 10 μM: 113%
- EC50: 1.4 nM

Source: patent US12378256B2, “Heterocyclic compound” (Takeda Pharmaceutical Company Limited, priority 2017, dated 2025)
